Our source for the IC50 values is BindingDB's records for doi:10.1021/jm0492397 (Saarland University, 2005).

In the assay the target is T1, Cytochrome P450 11B1, mitochondrial (Homo sapiens, UniProt P15538).
T1 sequence (P15538 whole entry): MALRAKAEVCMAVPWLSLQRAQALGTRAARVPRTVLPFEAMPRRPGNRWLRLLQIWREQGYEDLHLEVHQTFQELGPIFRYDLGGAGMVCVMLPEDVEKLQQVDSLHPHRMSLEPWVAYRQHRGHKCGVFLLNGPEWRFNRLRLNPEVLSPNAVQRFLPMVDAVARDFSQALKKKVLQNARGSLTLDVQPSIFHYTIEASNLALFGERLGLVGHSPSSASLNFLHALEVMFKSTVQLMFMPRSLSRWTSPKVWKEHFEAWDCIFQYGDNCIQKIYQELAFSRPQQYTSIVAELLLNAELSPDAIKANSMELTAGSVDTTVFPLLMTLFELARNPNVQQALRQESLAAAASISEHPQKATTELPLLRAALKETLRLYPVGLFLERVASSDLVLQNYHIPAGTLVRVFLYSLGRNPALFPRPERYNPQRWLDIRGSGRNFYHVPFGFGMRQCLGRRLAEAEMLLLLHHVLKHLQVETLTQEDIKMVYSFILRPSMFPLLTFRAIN
Briefly: CYP11B assay. As to the method: The enzyme activity was assayed by monitoring the conversion of deoxycorticosterone to corticosterone in the presence of inhibitor compounds. The product formation was monitored by HPTLC using a phosphoimager system.
For orientation: IC50 means the point on the concentration scale where inhibition reaches its midpoint. Low readings indicate higher potency, high ones lower potency. In turn, `C/C(=C1/CCc2cc(F)ccc21)c1cccnc1` [3-{1-[(1E)-5-fluoro-2,3-dihydro-1H-inden-1-ylidene]ethyl}pyridine] gave an IC50 of 159 nM.

In turn, `C(=C1/CCCc2ccccc21)/c1ccncc1` [4-[(E)-3,4-Dihydronaphthalen-1(2H)-ylidenemethyl]pyridine] came in with an IC50 of 282 nM.

As for `Brc1ccc2c(c1)CC/C2=C/c1ccncc1` [4-{[(1Z)-5-bromo-2,3-dihydro-1H-inden-1-ylidene]methyl}pyridine], the IC50 is 877 nM.

As to `Clc1ccc2c(c1)CC/C2=C/c1ccncc1` [4-{[(1Z)-5-chloro-2,3-dihydro-1H-inden-1-ylidene]methyl}pyridine], the IC50 was found to be 1120 nM.
